Values of other authors as cited in PMC6247902 (Cancer immunology research, 2018).

Test system: serum albumin
Details: read-out: affinity for serum albumin, KD

## Cc1c(C)c2c(c(C)c1O)CC[C@@](C)(CCC[C@H](C)CCC[C@H](C)CCCC(C)C)O2 [α-tocopherol]
  Kd: ~7 µM
